BindingDB's records for doi:10.1021/jm00402a012 (Harvard Medical School, 1988)

Assay: Inhibition of Folyl-polyglutamate synthase from mouse liver

Row | Ki | SMILES
1 | 45 µM | Nc1nc(N)c2nc(CNc3ccc(C(=O)NC(CCS(=O)(=O)O)C(=O)O)cc3)cnc2n1 (stereo not drawn) [2-{4-[(2,4-Diamino-pteridin-6-ylmethyl)-amino]-benzoylamino}-4-sulfo-butyric acid]
2 | 188 µM | CN(Cc1cnc2nc(N)nc(N)c2n1)c1ccc(C(=O)NC(CCS(=O)(=O)O)C(=O)O)cc1 (stereo not drawn) [2-{4-[(2,4-Diamino-pteridin-6-ylmethyl)-methyl-amino]-benzoylamino}-4-sulfo-butyric acid]
3 | 185 µM | CN(Cc1cnc2nc(N)nc(N)c2n1)c1ccc(C(=O)NC(CCP(=O)(O)O)C(=O)O)cc1 (stereo not drawn) [2-{4-[(2,4-Diamino-pteridin-6-ylmethyl)-methyl-amino]-benzoylamino}-4-phosphono-butyric acid]
